Source: patent US5286740A, “Carbamoyl derivatives” (Imperial Chemical Industries PLC, priority 1989, dated 1994)

Test system: leukotriene LTD4 aerosol challenge in guinea-pigs
Assay: guinea-pig aerosol test (LTD4 aerosol challenge, onset of dyspnea)
Format: in vivo
Conditions: for ED50: Cavia porcellus, oral administration, solution in poly(ethylene glycol), predosed generally 1 hour before LTD4 aerosol, read-out: ED50 (protection against LTD4-induced dyspnea)
Procedure: According to this procedure, guinea-pigs are predosed with test compound as a solution in poly(ethylene glycol) (generally 1 hour) before an aerosol challenge of leukotriene LTD4 (starting with 2 ml of a 30 microgram/ml solution) and the effect of the test compound on the average time of leukotriene initiated change in breathing pattern (such as onset of dyspnea) recorded and compared with that in undosed-, control guinea-pigs. Percent protection engendered by a test compound was calculated from the time delay to the onset of dyspnea compared to that for control animals.

COc1cc(C(=O)NS(=O)(=O)c2ccccc2C)ccc1Cc1cn(C)c2ccc(C(=O)NC[C@H](C)CC(F)(F)F)cc12 [Example 2, (R)-3-Methoxy-4-[1-methyl-5-(2-methyl-4,4,4-trifluorobutylcarbamoyl)indol-3-ylmethyl]-N-(2-methylphenylsulfonyl)benzamide]
ED50: 1.1 µmol/kg
untoward side-effects (oral, at several multiples of the minimum effective dose): without any indication of untoward side-effects

COc1cc(C(=O)NS(=O)(=O)c2ccccc2C)ccc1Cc1cn(C)c2ccc(C(=O)NCC3CCCC3)cc12 [reference compound]
ED50: 19.2 µmol/kg
